Assays:
human cortical slices [1] = experiment: Aβ-induced cell death (EthD-1/calcein AM) in human organotypic cortical cultures; format: cell-based
Text: Four patients with intractable epilepsy who had elected to undergo a temporal lobe resection were recruited for this study. […] However, the overlying temporal cortex is normal. The age of the subjects ranged from 20 to 49. Brain tissue was obtained with informed consent from all patients.
Brain tissue was removed in large, intact pieces by electrocautery. Tissue obtained from the temporal cortex was approximately 3 cm×2 cm×1.5-2 cm. Immediately following removal, the tissue was placed in ice-cold Neuregen-I media (Brainbits, Springfield, Ill.), a CO2 independent transport and holding medium, and transported to a tissue culture laboratory. Meninges were removed before cutting the tissue with a scalpel to produce blocks about 0.5-1 cm^3 such that each gyrus was kept as intact as possible and the cortical layers were preserved. As described previously, incisions were made perpendicular to the longitudinal axis of the gyrus and along the white matter (Verwer et al., Exp. Gerontol., 38:167-172 (2003)). A vibratome was used to cut 400 μm thick slices at a plane perpendicular to the longitudinal axis of the gyrus. Thus, all cortical layers and a small amount of white matter were included in a slice. Alternately, small tissue pieces, which were usually obtained from the hippocampus, were cut at 400 μm using a McIlwain tissue chopper. No more than 2 slices were placed on a filter insert with a 30 mm diameter and a 0.4 μm filter pore size (Millipore, Billerica, Mass.) held in 6-well culture plates. For the first 12 hours, slices were kept in 1-1.2 mL Neurobasal media with B-27 supplement, 0.5 mM glutamine, and 1% penicillin/streptomycin (Invitrogen). Subsequently, the media was changed every 2 days using 1 mL of media without antibiotics. Organotypic cultures were maintained in a humidified incubator at 37° C. in 5% O2, 5% CO2, and 90% N for 4 to 28 days.
Cell death and viability was determined on live slices using the fluorescent probes from Molecular Probes' Live/Dead Kit. After a 40 minute incubation in calcein AM (1:400) and ethidium homodimer (1:1000) in phosphate buffered saline, slices were visualized at 200× magnification with an inverted Nikon Diaphot 200 microscope using the Bio-Rad MRC-1024 Laser Scanning Confocal system (Hercules, Calif.). Random images were captured at the emission spectrum of each probe, and Scion Image software (Frederick, Md.) was used to quantify the number of live and dead cells. At least three areas were imaged and used to determine the percent death for each slice. The percent death was calculated as the number of EthD-1 positive cells divided by the total number of EthD-1 and calcein AM positive cells.
(§1) β-amyloid1-42 and reverse Aβ (Aβ42-1) were obtained from BACHEM (Torrance, Calif.). These peptides were dissolved in 0.1% NH3OH at 222 μM. For treatments, Aβ or reverse Aβ was aggregated at 50 μM in Neurobasal media with B-27 supplement and 0.5 mM glutamine at 37° C. for 24 hours. Then, the slice culture media was removed, and the slices were treated with 1 mL of 25 μM or 50 μM Aβ, reverse Aβ, or vehicle for 24 hour. Human TTR (Calbiochem) was added to slices together with the Aβ treatment at final concentrations of 0.03, 0.3, and 3 μM TTR. sAPPα was obtained from Sigma (St. Louis, Mo.). Unless otherwise stated, all sAPPα treatments were performed at 1 nM 48 hours prior to the addition of Aβ. The 10 amino acid fragment of the carboxyl-terminal region of sAPPα (592-601 of APP695; SEVKMDAEFR was added according to the same protocol for sAPPα. Because a variable amount of tissue was obtained from each patient, not all treatments were performed on all patients.

hippocampi of mice [2] = experiment: Stereotaxic injection into mouse hippocampus, TTR immunohistochemistry; format: in vivo
Description: (§2) Ten week old B6/SJL mice were stereotaxically injected on the right side of their hippocampi with sAPPα, a 10 amino acid fragment, or a scrambled 10-mer to an estimated 1 nM intra-hippocampal concentration. The contralateral sides were injected with artificial cerebrospinal fluid. Each injection consisted of […] of solution delivered over the period of 10 minutes. 48 hours after surgery, the mice were perfused with cold PBS, and their hippocampi were dissected and stored in stabilizing solution for subsequent RNA extraction.
48 hours after injection, mice were perfused with 4% PFA. The brains were harvested, hemisected, and fixed in 4% PFA overnight. They were then sunk in 30% sucrose for 24 hours, frozen, and sectioned. Sections were stained with cresyl violet for morphological verification of the injection site. Other sections were stained with goat anti-TTR, and biotinylated secondary antibody to show TTR protein expression, and ToPro3 as a nuclear marker. A control for nonspecific staining was done with goat IgG.
FIG. 13 is a set of stained micrographs showing stereotactic injection of sAPPα decamer into hippocampus induces expression of TTR in normal mouse brain. […] Injection of 1.5 μl of 15.3 nM solution prepared in artificial cerebral spinal fluid (CSF) was performed to approximate a final concentration of 1 nM in the hippocampus. The contralateral side was injected with only artificial CSF and used as control. […] The DNA binding dye ToPro3 was used to visualize nuclei (blue).

hippocampi of mice [3] = experiment: Stereotaxic injection into mouse hippocampus, quantitative real-time PCR; format: in vivo; details: estimated 1 nM intra-hippocampal concentration, 48 hours after injection
Description: as §2
RNA was extracted from hippocampal samples, DNase treated, and reverse transcribed. The cDNA was then used in quantitative real-time PCR performed with SYBR green on the Roche LightCycler system. Portions of each RNA sample were also used in no-RT traditional PCR reactions to validate the absence of DNA contamination.

human cortical slices [4] = experiment: TUNEL/NeuN staining of human cortical slices; format: cell-based
Description: as §1
Cortical slice cryosections were stained with terminal deoxynucleotidyl transferase-mediated, dUTP nick end labeling (TUNEL) and with an anti-NeuN antibody. Cells with DNA fragmentation were determined by the terminal deoxynucleotidyl transferase incorporation of fluorescein isothiocyanate (FITC)-12-dUTP into DNA (In Situ Cell Death Detection kit, Roche Biochem, Indianapolis, Ind.). At least 3 random images per slice were generated by confocal analysis at 600× magnification. The number of TUNEL positive, NeuN positive, and both TUNEL and NeuN positive cells were then quantified.

[5] = Aβ treatment, 1 subject, FIG. 6B

DAEF [peptide of 4 residues within the 10 residue peptide (residues 597-600)]
Protection against Aβ toxicity (percent death) (human cortical slices [1]; 50 μM Aβ, sample from one subject, FIG. 6A): protected against 50 μM Aβ toxicity | TTR after injection into hippocampus (hippocampi of mice [2]; preliminary data): increased TTR

SEVKMDAEFR
Protection against Aβ-induced death (percent death) (human cortical slices [1]; 1 nM 48 hours prior to 50 μM Aβ, four subjects, FIG. 6A): significant protection | Amount of TTR in and around the CA1 hippocampal neurons, immunohistochemistry (hippocampi of mice [2]; 1.5 μl of 15.3 nM solution (about 1 nM final) vs contralateral CSF injected hippocampus, FIG. 13): increased the amount of TTR | Levels of TTR within treated hippocampi (hippocampi of mice [2]; estimated 1 nM intra-hippocampal concentration, 48 hours after injection): increased levels of TTR | Expression of IGFBP2 in treated vs control side of hippocampus (hippocampi of mice [3]; FIG. 8): induced an increase in expression | Expression of IGF2 in treated vs control side of hippocampus (hippocampi of mice [3]; FIG. 10): induced an increase in expression

β-amyloid1-42 [Aβ]
Number of cells that have lost membrane integrity (human cortical slices [1]; 50 μM Aβ): dramatic increase | Percent death (human cortical slices [1]; 50 μM Aβ vs 50 μM reverse Aβ, FIG. 6A): significantly increased | DNA strand breaks as indicated by TUNEL (human cortical slices [4]; 50 μM Aβ): resulted in DNA strand breaks | Percent of neurons that were TUNEL positive (% TUNEL/NeuN) (human cortical slices [4]; [5]): increased | Percent of total TUNEL positive cells (% TUNEL) (human cortical slices [4]; [5]): increased

From US20090176714A1, “METHOD OF REDUCING THE EFFECTS OF ABeta AND COMPOSITIONS THEREFORE” (priority 2004, published 2009)
